Data reported in patent US6436874B1, “Synergistic herbicidal agents based on leaf herbicides containing phosphorus, imidazolinones and hormone weed killers” (priority 1998, dated 2002).
Like-named read-outs stand apart in the source and are kept apart here.

What was measured:
Type in all cases: in vivo
[1] = system: Axonopus compressus; assay: Field trial, herbicidal activity against Axonopus compressus in rubber tree plantation; conditions: for inhibition at 50 g/ha: Axonopus compressus, No. 3, dose 50 g of AS/ha; for Activity (%), w. after appl.: No. 16, dose 40 g of AS/ha
Method: (§1) In an oil palm plantation, the economically important tropical weed Hedyotis verticillata was grown on plots of the dimensions 2×5 m under natural outdoor conditions and treated with the herbicides A1.2, B1 and C1 or their mixtures in a tank mix under standard conditions using a plot sprayer, at a water application rate of 450 liters of water per hectare (over-the-top application to the weeds; plant density initially more than 95% ground coverage). At intervals of 1, 2, 3, 4, 5, 6, 7 and 8 weeks after the application, the herbicidal efficacy of the active compounds or active compound mixtures was evaluated visually on the basis of the treated plots, in comparison with untreated control plots. The damage to and development of all above-ground parts of the plants were recorded. Evaluation was carried out using a percentage scale (100% effect=all plants killed; 50% effect=50% of the plants and the green parts of the plants killed; 0% effect=no noticeable effect=like control plot). The evaluation values of in each case 4 plots were averaged.
In a rubber tree plantation, plots with the tropical weed Axonopus compressus were grown under natural outdoor conditions (plot dimensions 2×5 m). The herbicides or their mixtures in a tank mix were applied under standard conditions using a plot spayer at a water application rate of 450 liters of water per hectare (over-the-top application). At intervals of 4, 7, 13, 17 and 21 weeks after the application, the herbicidal efficacy of the active compounds or active compound mixtures was evaluated visually on the basis of the treated plots, in comparison with untreated control plots. The damage to and development of all above-ground parts of the plants were recorded. Evaluation was carried out as described in Example 1.

[2] = system: Hedyotis verticillata; assay: Field trial, herbicidal activity against Hedyotis verticillata in oil palm plantation; conditions: for inhibition at 50 g/ha: Scleromitrion verticillatum, No. 14, dose 50 g of AS/ha, read-out: Herbicidal activity (%), w. after appl.
Method: as §1

[3] = system: Asystasia intrusa; assay: Field trial, herbicidal activity against Asystasia intrusa in rubber tree plantation; conditions: for inhibition at 50 g/ha: Asystasia intrusa, No. 3, dose 50 g of AS/ha; for Activity (%), w. after appl.: No. 16, dose 40 g of AS/ha
Method: as §1
In a rubber tree plantation, plots with the tropical weed Asystasia intrusa were grown under natural outdoor conditions (dimensions of the plots 2 x 5 m). The herbicides or their mixtures in a tank mix were applied under standard conditions (over-the-top application using a plot sprayer, water application rate 450 l/ha). In intervals of 4, 7, 13, 17 and 21 weeks after the application, the herbicidal efficacy of the active compounds or their mixtures was evaluated visually on the basis of the treated plots, in comparison with untreated control plots. The damage to and the development of all above-ground parts of the plants were recorded. Evaluation was carried out as described in Example 1.

## CC(C)C1(C)N=C(c2ncccc2C(=O)O)NC1=O (centres unmarked) [B1, Imazapyr]
[1]; 4 w. after appl.
  inhibition at 50 g/ha: 35%
[1]; 7 w. after appl.
  inhibition at 50 g/ha: 35%
[1]; 13 w. after appl.
  inhibition at 50 g/ha: 45%
[1]; 17 w. after appl.
  inhibition at 50 g/ha: 45%
[1]; 21 w. after appl.
  inhibition at 50 g/ha: 50%
[2]; 1 w. after appl.
  inhibition at 50 g/ha: 8%
[2]; 2 w. after appl.
  inhibition at 50 g/ha: 5%
[2]; 3 w. after appl.
  inhibition at 50 g/ha: 5%
[2]; 4 w. after appl.
  inhibition at 50 g/ha: 5%
[2]; 5 w. after appl.
  inhibition at 50 g/ha: 10%
[2]; 6 w. after appl.
  inhibition at 50 g/ha: 13%
[2]; 7 w. after appl.
  inhibition at 50 g/ha: 15%
[2]; 8 w. after appl.
  inhibition at 50 g/ha: 15%
[3]; 4 w. after appl.
  inhibition at 50 g/ha: 45%
[3]; 7 w. after appl.
  inhibition at 50 g/ha: 40%
[3]; 13 w. after appl.
  inhibition at 50 g/ha: 40%
[3]; 17 w. after appl.
  inhibition at 50 g/ha: 47%
[3]; 21 w. after appl.
  inhibition at 50 g/ha: 53%

## O=C([O-])COc1ccc(Cl)cc1Cl.[Na+] [C1, 2,4-D-sodium salt]
[1]; 4 w. after appl.
  Activity (%), w. after appl.: 5%
[1]; 7 w. after appl.
  Activity (%), w. after appl.: 5%
[1]; 13 w. after appl.
  Activity (%), w. after appl.: 0%
[1]; 17 w. after appl.
  Activity (%), w. after appl.: 0%
[1]; 21 w. after appl.
  Activity (%), w. after appl.: 0%
[2]; No. 15, dose 40 g of AS/ha, 1 w. after appl.
  Herbicidal activity (%), w. after appl.: 6%
[2]; No. 15, dose 40 g of AS/ha, 2 w. after appl.
  Herbicidal activity (%), w. after appl.: 5%
[2]; No. 15, dose 40 g of AS/ha, 3 w. after appl.
  Herbicidal activity (%), w. after appl.: 5%
[2]; No. 15, dose 40 g of AS/ha, 4 w. after appl.
  Herbicidal activity (%), w. after appl.: 4%
[2]; No. 15, dose 40 g of AS/ha, 5 w. after appl.
  Herbicidal activity (%), w. after appl.: 0%
[2]; No. 15, dose 40 g of AS/ha, 6 w. after appl.
  Herbicidal activity (%), w. after appl.: 0%
[2]; No. 15, dose 40 g of AS/ha, 7 w. after appl.
  Herbicidal activity (%), w. after appl.: 0%
[2]; No. 15, dose 40 g of AS/ha, 8 w. after appl.
  Herbicidal activity (%), w. after appl.: 0%
[2]; No. 16, dose 20 g of AS/ha, 1 w. after appl.
  Herbicidal activity (%), w. after appl.: 6%
[2]; No. 16, dose 20 g of AS/ha, 2 w. after appl.
  Herbicidal activity (%), w. after appl.: 5%
[2]; No. 16, dose 20 g of AS/ha, 3 w. after appl.
  Herbicidal activity (%), w. after appl.: 5%
[2]; No. 16, dose 20 g of AS/ha, 4 w. after appl.
  Herbicidal activity (%), w. after appl.: 1%
[2]; No. 16, dose 20 g of AS/ha, 5 w. after appl.
  Herbicidal activity (%), w. after appl.: 0%
[2]; No. 16, dose 20 g of AS/ha, 6 w. after appl.
  Herbicidal activity (%), w. after appl.: 0%
[2]; No. 16, dose 20 g of AS/ha, 7 w. after appl.
  Herbicidal activity (%), w. after appl.: 0%
[2]; No. 16, dose 20 g of AS/ha, 8 w. after appl.
  Herbicidal activity (%), w. after appl.: 0%
[3]; 4 w. after appl.
  Activity (%), w. after appl.: 77%
[3]; 7 w. after appl.
  Activity (%), w. after appl.: 67%
[3]; 13 w. after appl.
  Activity (%), w. after appl.: 20%
[3]; 17 w. after appl.
  Activity (%), w. after appl.: 10%
[3]; 21 w. after appl.
  Activity (%), w. after appl.: 8%
